The NIST ThermoML archive (doi:10.1016/j.fluid.2011.08.018)

Test: mean ionic activity coefficient (dimensionless); mn = molality of the nth substance listed, in mol/kg
Details: 298.15 K, 101 kPa, Liquid, EMF measurements

[Cl-].[Na+] [sodium chloride] + O
Details	mean ionic activity coefficient
m1 = 0.0496	0.819
m1 = 0.1857	0.733
m1 = 0.1979	0.733
m1 = 0.3096	0.707
m1 = 0.3711	0.689
m1 = 0.4571	0.686
m1 = 0.5916	0.675
m1 = 0.6871	0.659
m1 = 0.8318	0.663
m1 = 1.139	0.651
m1 = 1.212	0.659
m1 = 1.77	0.657
m1 = 1.87	0.67
m1 = 2.394	0.68
m1 = 2.624	0.702
m1 = 3.587	0.75
m1 = 3.811	0.78
m1 = 4.654	0.83
m1 = 5.142	0.891
m1 = 5.443	0.921
m1 = 5.693	0.929
m1 = 5.891	0.97
m1 = 6.032	0.985
m1 = 6.085	0.976
m1 = 6.1	0.997

[Cl-].[Na+] [sodium chloride] + CNC=O
Details	mean ionic activity coefficient
m1 = 0.0396	0.986
m1 = 0.052	0.985
m1 = 0.0642	0.983
m1 = 0.102	0.984
m1 = 0.1375	0.984
m1 = 0.1655	0.978
m1 = 0.1934	0.971
